Measurements: patent US12268682B2, “Anticancer drug FL118 formulation for treatment of human cancer” (CANGET BIOTEKPHARMA, LLC, priority 2019, dated 2025)

Test system: MM cell lines
Experiment: BLI-based cytotoxicity assay using LUC-transduced MM cell lines
Set-up: species or system human
Procedure: Cell lines and culture: Luciferase (LUC)-transduced MM cell lines RPMI 8226, JJN3, UM9, MM1.s, U266, L363, and OPM-2 were cultured in RPMI 1640 (Life Technologies), supplemented with 10% heat-inactivated HyClone FetalClone I serum (GE Healthcare Life Sciences) and (penicillin, 10.000 U/mL; streptomycin, […]; InVitrogen,). HS-5 was cultured in DMEM (Life Technologies), supplemented with heat-inactivated FBS (Sigma) and antibiotics.

`CC[C@@]1(O)C(=O)OCc2c1cc1n(c2=O)Cc2cc3cc4c(cc3nc2-1)OCO4` [FL118] was tested, and the “lysis of MM cell lines in the presence of BMMSCs” value (5 of 6 MM cell lines) was “not reduced, or even increased”, the “stroma-cell induced drug resistance against bortezomib and doxorubicin” value (MM1.s and UM9 co-cultured with BMMSCs or HS-5, 48 hours) was “effectively abrogated” and the “combination activity with melphalan or bortezomib” value (MM cell lines, 48 hours) was “at least additive activity”. The “lysis of MM cell line in the presence of BMMSCs” value (cell line UM9) was “minimal reduction”.
